From PubChem BioAssay (NCI)
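How tested: cells in 96-well plates exposed to compound for 48 hours at five concentrations. GI50 marks 50% less growth. TGI denotes the concentration required for complete inhibition of growth.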

Key:
Assay in all cases: NCI-60 cell line screen, 48 h
CAKI-1 renal = system: CAKI-1 renal
MDA-N = system: MDA-N
ACHN renal = system: ACHN renal
MALME-3M melanoma = system: MALME-3M melanoma
M14 melanoma = system: M14 melanoma
A498 renal = system: A498 renal
KM20L2 colon = system: KM20L2 colon
DLD-1 colon = system: DLD-1 colon
M19-MEL melanoma = system: M19-MEL melanoma
TK-10 renal = system: TK-10 renal
LXFL 529 NSCLC = system: LXFL 529 NSCLC
DMS 114 small cell lung = system: DMS 114 small cell lung
HOP-18 NSCLC = system: HOP-18 NSCLC

Cn1c2ccccc2n2c3ncccc3c(=NCCCC(=O)O)c(C#N)c12 was tested, and the TGI (CAKI-1 renal) was over 100 µM, the TGI (MDA-N) was over 100 µM and the TGI (ACHN renal) was over 100 µM. For the same compound, the TGI (MALME-3M melanoma) was over 100 µM, the TGI (M14 melanoma) was over 100 µM and the TGI (A498 renal) was over 100 µM.

O=C(CC(CC(=O)Oc1c(Br)cc(Br)cc1C(=O)O)C(=O)Oc1c(Br)cc(Br)cc1C(=O)O)Oc1c(Br)cc(Br)cc1C(=O)O gave a TGI (CAKI-1 renal) of over 100 µM, a TGI (KM20L2 colon) of over 100 µM and a TGI (ACHN renal) of over 100 µM. It also gave a TGI (DLD-1 colon) of over 100 µM, a TGI (MALME-3M melanoma) of over 100 µM and a TGI (M14 melanoma) of over 100 µM. It also gave a TGI (M19-MEL melanoma) of over 100 µM, a TGI (TK-10 renal) of over 100 µM and a TGI (LXFL 529 NSCLC) of over 100 µM. It also gave a TGI (A498 renal) of over 100 µM and a TGI (DMS 114 small cell lung) of over 100 µM.

C(/C=C/c1ccccc1)=Nc1ccc2c(c1)Cc1ccccc1-2 gave a TGI (CAKI-1 renal) of over 100 µM, a TGI (MDA-N) of over 100 µM and a TGI (ACHN renal) of over 100 µM. The TGI (MALME-3M melanoma) was over 100 µM, the TGI (M14 melanoma) was over 100 µM and the TGI (TK-10 renal) was over 100 µM. It also gave a TGI (A498 renal) of over 100 µM.

Work on O=C(NC(Cl)(C(F)(F)F)C(F)(F)F)c1ccc(F)cc1 yielded a TGI (CAKI-1 renal) of over 100 µM, a TGI (MDA-N) of over 100 µM and a TGI (ACHN renal) of over 100 µM. For the same compound, the TGI (MALME-3M melanoma) was over 100 µM, the TGI (M14 melanoma) was over 100 µM and the TGI (TK-10 renal) was over 100 µM. It also gave a TGI (A498 renal) of over 100 µM.

C=C(C)C(=O)O[C@H]1CC2=C[C@@H](C[C@@]3(C)O[C@@H]3[C@H]3OC(=O)C(=C)[C@@H]31)OC2=O was tested, and the GI50 (CAKI-1 renal) was 2.63 µM, the TGI (CAKI-1 renal) was 6.25 µM and the TGI (KM20L2 colon) was 10.5 µM. The TGI (DLD-1 colon) was 3.3 µM, the TGI (MALME-3M melanoma) was 5.62 µM and the TGI (M19-MEL melanoma) was 6.52 µM. The GI50 (HOP-18 NSCLC) was 6.42 µM, the TGI (HOP-18 NSCLC) was 10.9 µM and the TGI (A498 renal) was 9.06 µM. It also gave a TGI (DMS 114 small cell lung) of 9.35 µM.

Work on CCOP(=O)(C=C=C1CCC2[C@@H]3CCc4cc(OC)ccc4C3CC[C@]12C)OCC (some centres not stated) yielded a TGI (CAKI-1 renal) of 26.6 µM, a TGI (MDA-N) of 26 µM and a TGI (ACHN renal) of 21.9 µM. The TGI (MALME-3M melanoma) was 30.3 µM, the TGI (M14 melanoma) was 24.3 µM and the TGI (TK-10 renal) was 25.6 µM. It also gave a TGI (A498 renal) of 25.9 µM.

NC(CSCc1ccc(I)cc1)C(=O)O (configuration not stated) showed a TGI (CAKI-1 renal) of over 100 µM, a TGI (MDA-N) of over 100 µM and a TGI (ACHN renal) of over 100 µM. It also gave a TGI (MALME-3M melanoma) of over 100 µM, a TGI (M14 melanoma) of over 100 µM and a TGI (TK-10 renal) of over 100 µM. For the same compound, the TGI (A498 renal) was over 100 µM.

c1ccc2c(c1)NCCC(=NC1CCCCC1)N2 showed a TGI (CAKI-1 renal) of over 100 µM, a TGI (MDA-N) of over 100 µM and a TGI (ACHN renal) of over 100 µM. It also gave a TGI (MALME-3M melanoma) of over 100 µM, a TGI (M14 melanoma) of over 100 µM and a TGI (TK-10 renal) of over 100 µM. For the same compound, the TGI (A498 renal) was over 100 µM.

Clc1ccc(Nc2nnc(CCCCCCCCc3nnc(Nc4ccc(Cl)cc4)o3)o2)cc1 gave a TGI (CAKI-1 renal) of over 100 µM, a TGI (MDA-N) of over 100 µM and a TGI (ACHN renal) of over 100 µM. It also gave a TGI (MALME-3M melanoma) of over 100 µM, a TGI (M14 melanoma) of over 100 µM and a TGI (TK-10 renal) of over 100 µM. The TGI (A498 renal) was over 100 µM.

O=[N+]([O-])c1ccc(-c2cc(O)c3nc4ccccc4n3c2)cc1 showed a TGI (CAKI-1 renal) of over 100 µM, a TGI (MDA-N) of over 100 µM and a TGI (ACHN renal) of over 100 µM. For the same compound, the TGI (MALME-3M melanoma) was over 100 µM, the TGI (M14 melanoma) was over 100 µM and the TGI (TK-10 renal) was over 100 µM. It also gave a TGI (A498 renal) of over 100 µM.

O=c1[nH]nc(Cc2ccc(Cl)cc2)n1/N=C/c1ccco1 showed a TGI (CAKI-1 renal) of over 100 µM, a TGI (MDA-N) of over 100 µM and a TGI (ACHN renal) of over 100 µM. For the same compound, the TGI (MALME-3M melanoma) was over 100 µM, the TGI (M14 melanoma) was over 100 µM and the TGI (A498 renal) was over 100 µM.

With CN(C)CCCC1c2ccccc2Oc2ccc(C(F)(F)F)cc21 (configuration not stated) the TGI (CAKI-1 renal) was 25.8 µM, the TGI (MDA-N) was 15.2 µM and the TGI (ACHN renal) was 30.4 µM. For the same compound, the TGI (MALME-3M melanoma) was 15.8 µM, the TGI (M14 melanoma) was 14.2 µM and the TGI (TK-10 renal) was 29.3 µM. For the same compound, the TGI (A498 renal) was 25.9 µM.

In the case of CC(C)C1OC(N)=C(C#N)C1(C#N)C#N (configuration not stated), the TGI (CAKI-1 renal) is reported as 13.5 µM, the TGI (MDA-N) is reported as over 100 µM and the TGI (ACHN renal) is reported as over 100 µM. For the same compound, the TGI (MALME-3M melanoma) was over 100 µM, the TGI (M14 melanoma) was over 100 µM and the TGI (TK-10 renal) was over 100 µM. For the same compound, the TGI (A498 renal) was over 100 µM.

In the case of O=C(c1cc2ccccc2[nH]1)N1C2CCC1CN(CCOC(c1ccc(F)cc1)c1ccc(F)cc1)CC2 (configuration not stated), the TGI (CAKI-1 renal) is reported as over 100 µM, the TGI (MDA-N) is reported as over 100 µM and the TGI (ACHN renal) is reported as over 100 µM. The TGI (MALME-3M melanoma) was over 100 µM, the TGI (M14 melanoma) was over 100 µM and the TGI (TK-10 renal) was over 100 µM. The TGI (A498 renal) was over 100 µM.

Work on O=C1NC(=S)N/C1=C\c1cc2c(=O)c3ccccc3sc2s1 yielded a TGI (CAKI-1 renal) of over 100 µM, a TGI (MDA-N) of over 100 µM and a TGI (ACHN renal) of over 100 µM. It also gave a TGI (MALME-3M melanoma) of over 100 µM, a TGI (TK-10 renal) of over 100 µM and a TGI (A498 renal) of over 100 µM.

Work on O=c1ccn(CC2(CO)CCCC2)c(=O)[nH]1 yielded a TGI (CAKI-1 renal) of over 100 µM, a TGI (MDA-N) of over 100 µM and a TGI (ACHN renal) of over 100 µM. For the same compound, the TGI (MALME-3M melanoma) was over 100 µM, the TGI (TK-10 renal) was over 100 µM and the TGI (A498 renal) was over 100 µM.

With COC(=O)c1c(C)cccc1C1CN=NC12Cc1ccccc1C2=O (configuration not stated) the TGI (CAKI-1 renal) was over 100 µM, the TGI (MDA-N) was over 100 µM and the TGI (ACHN renal) was over 100 µM. It also gave a TGI (MALME-3M melanoma) of over 100 µM, a TGI (M14 melanoma) of over 87.9 µM and a TGI (TK-10 renal) of over 100 µM. The TGI (A498 renal) was over 100 µM.

C=CCNC(=S)N=Nc1c(O)n(CN2CCOCC2)c2ccc([N+](=O)[O-])cc12 showed a TGI (CAKI-1 renal) of over 100 µM, a TGI (MDA-N) of over 100 µM and a TGI (ACHN renal) of over 100 µM. For the same compound, the TGI (MALME-3M melanoma) was over 100 µM, the TGI (M14 melanoma) was over 100 µM and the TGI (TK-10 renal) was 93.1 µM. It also gave a TGI (A498 renal) of 65.6 µM.

Compound CCCCCC1CC=CC(=O)O1 (configuration not stated) has a TGI (CAKI-1 renal) of 20.5 µM, a TGI (MDA-N) of 38.2 µM and a TGI (ACHN renal) of 33 µM. For the same compound, the TGI (MALME-3M melanoma) was 20.2 µM, the TGI (M14 melanoma) was 26.6 µM and the TGI (TK-10 renal) was 38.1 µM. For the same compound, the TGI (A498 renal) was over 100 µM.

Compound O=[N+]([O-])c1ccc2nc(Cl)n[n+]([O-])c2c1 has a TGI (CAKI-1 renal) of 30.1 µM, a TGI (MDA-N) of 24.9 µM and a TGI (ACHN renal) of 27.2 µM. For the same compound, the TGI (MALME-3M melanoma) was 29.5 µM, the TGI (M14 melanoma) was 27.5 µM and the TGI (TK-10 renal) was 30.8 µM. The TGI (A498 renal) was 21.2 µM.

Cc1nc2c(c(=O)[nH]1)S/C(=C(/C#N)c1nc3ccccc3[nH]1)N2c1ccccc1 showed a TGI (CAKI-1 renal) of over 100 µM, a TGI (KM20L2 colon) of over 100 µM and a TGI (ACHN renal) of over 100 µM. For the same compound, the TGI (DLD-1 colon) was over 100 µM, the TGI (MALME-3M melanoma) was over 100 µM and the TGI (M14 melanoma) was over 100 µM. The TGI (M19-MEL melanoma) was over 100 µM, the TGI (TK-10 renal) was over 100 µM and the TGI (LXFL 529 NSCLC) was over 100 µM. It also gave a TGI (A498 renal) of over 100 µM and a TGI (DMS 114 small cell lung) of over 100 µM.

In the case of Nc1ccccc1Nc1ccccc1C(=O)[O-].Nc1ccccc1Nc1ccccc1C(=O)[O-].[Zn+2], the TGI (CAKI-1 renal) is reported as over 100 µM, the TGI (KM20L2 colon) is reported as over 100 µM and the TGI (ACHN renal) is reported as over 100 µM. For the same compound, the TGI (MALME-3M melanoma) was over 100 µM, the TGI (M14 melanoma) was over 100 µM and the TGI (TK-10 renal) was over 100 µM. The TGI (A498 renal) was over 100 µM.

For CCOc1ccc2nc3nc(=O)[nH]c(C)c3c(NCCCN(CC)CC)c2c1, the TGI (CAKI-1 renal) was over 100 µM, the TGI (MDA-N) was over 100 µM and the TGI (ACHN renal) was over 100 µM. It also gave a TGI (MALME-3M melanoma) of over 100 µM, a TGI (M14 melanoma) of over 100 µM and a TGI (TK-10 renal) of over 100 µM. For the same compound, the TGI (A498 renal) was over 100 µM.

For S=C(NNC1=NCCCCN1)Nc1ccc(Cl)cc1, the TGI (CAKI-1 renal) was 0.0151 µM, the TGI (MDA-N) was over 100 µM and the TGI (ACHN renal) was 90.2 µM. For the same compound, the TGI (MALME-3M melanoma) was 55.7 µM, the TGI (M14 melanoma) was 22.1 µM and the TGI (TK-10 renal) was over 100 µM. It also gave a TGI (A498 renal) of over 100 µM.

Work on CCN1CCCC(C#N)(c2ccccc2)CC1 (configuration not stated) yielded a TGI (CAKI-1 renal) of over 100 µM, a TGI (MDA-N) of over 100 µM and a TGI (ACHN renal) of over 100 µM. For the same compound, the TGI (MALME-3M melanoma) was over 100 µM, the TGI (M14 melanoma) was over 100 µM and the TGI (TK-10 renal) was over 100 µM. The TGI (A498 renal) was over 100 µM.
